From patent publication US12495798B2, “Nicotinamide compound and herbicidal composition comprising compound” (KOREA RESEARCH INSTITUTE OF CHEMICAL TECHNOLOGY, priority 2019, dated 2025)

How the values were obtained:
Format in all cases: in vivo
sorghum [1] = assay: Herbicidal activity test against upland field weeds (soil treatment test); set-up: key to Soil treatment herbicidal activity, Sorghum: 0 (no control); 100 (complete control); conditions: scale 0 (no control) to 100 (complete control)
Method in brief: (§1)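 Weed control scored visually on a 0 (none) to 100 (complete) scale versus untreated pots at 14 or 21 days in greenhouse (30±5 °C, 14 h light). Test compounds, 50 or 75 g a.i./ha in 50% acetone/0.1% Tween-20, hand-sprayed onto soil one day post-sowing.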

sorghum [2] = assay: Herbicidal activity test against upland field weeds (foliar treatment test); conditions: scale 0-100; for plant injury at 75 g/ha: 75 g ai/ha
Method in brief: (§2)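 Visual 0–100 control ratings relative to untreated plants, taken 14 (or 21) days after spraying foliage at 50 or 75 g a.i./ha. Spray solution: 50% acetone with 0.1% Tween-20; plants kept in greenhouse at 30±5 °C, 14 h light/10 h dark.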

cocklebur [3] = assay: as above; set-up: key to Foliar treatment herbicidal activity, Cocklebur: 0 (no control); 100 (complete control); conditions: scale 0-100; for pest or weed control at 75 g/ha: Xanthium strumarium, 75 g ai/ha; for Foliar treatment herbicidal activity, Cocklebur: 50 g ai/ha
Method in brief: as §2

cocklebur [4] = assay: Herbicidal activity test against upland field weeds (soil treatment test); set-up: key to Soil treatment herbicidal activity, Cocklebur: 0 (no control); 100 (complete control); conditions: scale 0 (no control) to 100 (complete control)
Method in brief: as §1

velvetleaf [5] = assay: Herbicidal activity test against upland field weeds (foliar treatment test); set-up: key to Foliar treatment herbicidal activity, velvet leaf: 0 (no control); 100 (complete control); conditions: for pest or weed control at 75 g/ha: Abutilon theophrasti, 75 g ai/ha, scale 0-100, read-out: Foliar treatment herbicidal activity, velvet leaf; for Foliar treatment herbicidal activity, velvet leaf: 50 g ai/ha, scale 0-100
Method in brief: as §2

black nightshade [6] = assay: as above; set-up: key to Foliar treatment herbicidal activity, black nightshade: 0 (no control); 100 (complete control); conditions: scale 0-100; for pest or weed control at 75 g/ha: Solanum nigrum, 75 g ai/ha; for Foliar treatment herbicidal activity, black nightshade: 50 g ai/ha
Method in brief: as §2

barnyard grass [7] = assay: as above; set-up: key to Foliar treatment herbicidal activity, barnyard grass: 0 (no control); 100 (complete control); conditions: scale 0-100; for pest or weed control at 75 g/ha: 75 g ai/ha
Method in brief: as §2

bindweed [8] = assay: as above; set-up: key to Foliar treatment herbicidal activity, Bindweed: 0 (no control); 100 (complete control); conditions: scale 0-100; for pest or weed control at 75 g/ha: 75 g ai/ha; for Foliar treatment herbicidal activity, Bindweed: 50 g ai/ha
Method in brief: as §2

indian jointvetch [9] = assay: Herbicidal activity test against upland field weeds (soil treatment test); set-up: key to Soil treatment herbicidal activity, Indian jointvetch: 0 (no control); 100 (complete control); conditions: scale 0 (no control) to 100 (complete control)
Method in brief: as §1

bindweed [10] = assay: as above; set-up: key to Soil treatment herbicidal activity, Bindweed: 0 (no control); 100 (complete control); conditions: scale 0 (no control) to 100 (complete control)
Method in brief: as §1

crabgrass [11] = assay: Herbicidal activity test against upland field weeds (foliar treatment test); set-up: key to Foliar treatment herbicidal activity, Crabgrass: 0 (no control); 100 (complete control); conditions: scale 0-100; for pest or weed control at 75 g/ha: Digitaria sanguinalis, 75 g ai/ha; for Foliar treatment herbicidal activity, Crabgrass: 50 g ai/ha
Method in brief: as §2

black nightshade [12] = assay: Herbicidal activity test against upland field weeds (soil treatment test); set-up: key to Soil treatment herbicidal activity, black nightshade: 0 (no control); 100 (complete control); conditions: scale 0 (no control) to 100 (complete control)
Method in brief: as §1

quack grass [13] = assay: Herbicidal activity test against upland field weeds (foliar treatment test); set-up: key to Foliar treatment herbicidal activity, quack grass: 0 (no control); 100 (complete control); conditions: scale 0-100
Method in brief: as §2

fall panicum [14] = assay: Herbicidal activity test against upland field weeds (soil treatment test); set-up: key to Soil treatment herbicidal activity, Fall panicum: 0 (no control); 100 (complete control); conditions: scale 0 (no control) to 100 (complete control); for pest or weed control at 75 g/ha: Panicum dichotomiflorum, 75 g ai/ha; for Soil treatment herbicidal activity, Fall panicum: 50 g ai/ha
Method in brief: as §1

indian jointvetch [15] = assay: Herbicidal activity test against upland field weeds (foliar treatment test); set-up: key to Foliar treatment herbicidal activity, Indian jointvetch: 0 (no control); 100 (complete control); conditions: scale 0-100; for pest or weed control at 75 g/ha: 75 g ai/ha; for Foliar treatment herbicidal activity, Indian jointvetch: 50 g ai/ha
Method in brief: as §2

crabgrass [16] = assay: Herbicidal activity test against upland field weeds (soil treatment test); set-up: key to Soil treatment herbicidal activity, Crabgrass: 0 (no control); 100 (complete control); conditions: scale 0 (no control) to 100 (complete control)
Method in brief: as §1

barnyard grass [17] = assay: as above; set-up: key to Soil treatment herbicidal activity, barnyard grass: 0 (no control); 100 (complete control); conditions: scale 0 (no control) to 100 (complete control)
Method in brief: as §1

quack grass [18] = assay: as above; set-up: key to Soil treatment herbicidal activity, quack grass: 0 (no control); 100 (complete control); conditions: scale 0 (no control) to 100 (complete control)
Method in brief: as §1

velvetleaf [19] = assay: as above; set-up: key to Soil treatment herbicidal activity, velvet leaf: 0 (no control); 100 (complete control); conditions: scale 0 (no control) to 100 (complete control)
Method in brief: as §1

fall panicum [20] = assay: Herbicidal activity test against upland field weeds (foliar treatment test); conditions: scale 0-100; for pest or weed control at 75 g/ha: 75 g ai/ha
Method in brief: as §2

Row | Compound | plant injury at 75 g/ha (sorghum [2]; Sorghum) [%] | pest or weed control at 75 g/ha (cocklebur [3]) [%] | pest or weed control at 75 g/ha (velvetleaf [5]) [%] | pest or weed control at 75 g/ha (black nightshade [6]) [%] | pest or weed control at 75 g/ha (barnyard grass [7]; Echinochloa crus-galli) [%] | pest or weed control at 75 g/ha (bindweed [8]) [%] | pest or weed control at 75 g/ha (crabgrass [11]) [%] | Foliar treatment herbicidal activity, quack grass (quack grass [13]; 75 g ai/ha) | pest or weed control at 75 g/ha (fall panicum [14]) [%] | pest or weed control at 75 g/ha (indian jointvetch [15]) [%] | pest or weed control at 75 g/ha (fall panicum [20]; Panicum dichotomiflorum) [%] | Soil treatment herbicidal activity, Sorghum (sorghum [1]; 50 g ai/ha) | Foliar treatment herbicidal activity, Cocklebur (cocklebur [3]) | Soil treatment herbicidal activity, Cocklebur (cocklebur [4]; 50 g ai/ha) | Foliar treatment herbicidal activity, velvet leaf (velvetleaf [5]) | Foliar treatment herbicidal activity, black nightshade (black nightshade [6]) | Foliar treatment herbicidal activity, Bindweed (bindweed [8]) | Soil treatment herbicidal activity, Indian jointvetch (indian jointvetch [9]; 50 g ai/ha) | Soil treatment herbicidal activity, Bindweed (bindweed [10]; 50 g ai/ha) | Foliar treatment herbicidal activity, Crabgrass (crabgrass [11]) | further results
1 | CN(CCOCc1nnn(C)n1)c1nc(C(F)(F)F)ccc1C(=O)Nc1nnnn1C [Compound No. 2-34, 2-(methyl(2-((2-methyl-2H-tetrazol-5-yl)methoxy)ethyl)amino)-N-(1-methyl-1H-tetrazol-5-yl)-6-(trifluoromethyl)nicotinamide] | 20 | 40 | 50 | 95 | 70 | 50 | 60 | 0 | 80 | 60 | 40 |  |  |  |  |  |  |  |  |  | Soil treatment herbicidal activity, Sorghum (sorghum [1]; 75 g ai/ha): 0; Soil treatment herbicidal activity, Cocklebur (cocklebur [4]; 75 g ai/ha): 0; pest or weed control at 75 g/ha (indian jointvetch [9]; 75 g ai/ha): 70%; Soil treatment herbicidal activity, Bindweed (bindweed [10]; 75 g ai/ha): 0; pest or weed control at 75 g/ha (black nightshade [12]; Solanum nigrum, 75 g ai/ha): 95%; pest or weed control at 75 g/ha (crabgrass [16]; Digitaria sanguinalis, 75 g ai/ha): 70%; pest or weed control at 75 g/ha (barnyard grass [17]; Echinochloa crus-galli, 75 g ai/ha): 60%; Soil treatment herbicidal activity, quack grass (quack grass [18]; 75 g ai/ha): 0; pest or weed control at 75 g/ha (velvetleaf [19]; Abutilon theophrasti, 75 g ai/ha, read-out: Soil treatment herbicidal activity, velvet leaf): 60%
2 | CN(CCc1nnn(C)n1)c1nc(C(F)(F)F)ccc1C(=O)Nc1nnnn1C [Compound No. 2-36, 2-(methyl(2-(2-methyl-2H-tetrazol-5-yl)ethyl)amino)-N-(1-methyl-1H-tetrazol-5-yl)-6-(trifluoromethyl)nicotinamide] | 20 | 70 | 50 | 95 | 90 | 70 | 60 | 0 | 98 | 60 | 50 |  |  |  |  |  |  |  |  |  | plant injury at 75 g/ha (sorghum [1]; Sorghum, 75 g ai/ha): 20%; pest or weed control at 75 g/ha (cocklebur [4]; Xanthium strumarium, 75 g ai/ha): 90%; Soil treatment herbicidal activity, Indian jointvetch (indian jointvetch [9]; 75 g ai/ha): 100; pest or weed control at 75 g/ha (bindweed [10]; 75 g ai/ha): 70%; Soil treatment herbicidal activity, black nightshade (black nightshade [12]; 75 g ai/ha): 100; Soil treatment herbicidal activity, Crabgrass (crabgrass [16]; 75 g ai/ha): 100; Soil treatment herbicidal activity, barnyard grass (barnyard grass [17]; 75 g ai/ha): 100; pest or weed control at 75 g/ha (quack grass [18]; 75 g ai/ha): 10%; Soil treatment herbicidal activity, velvet leaf (velvetleaf [19]; 75 g ai/ha): 100
3 | Cn1nnc(C[S+]([O-])Cc2nc(C(F)(F)F)ccc2C(=O)Nc2nnnn2C)n1 (centres unmarked) [Compound No. 2-104, N-(1-methyl-1H-tetrazol-5-yl)-2-((((2-methyl-2H-tetrazol-5-yl)methyl)sulfinyl)methyl)-6-(trifluoromethyl)nicotinamide] |  |  |  |  |  |  |  |  |  |  |  | 0 | 100 | 0 | 100 | 100 | 100 | 0 | 0 | 100 | plant injury at 50 g/ha (sorghum [2]; Sorghum, 50 g ai/ha): 80%; pest or weed control at 50 g/ha (barnyard grass [7]; Echinochloa crus-galli, 50 g ai/ha): 98%; pest or weed control at 50 g/ha (black nightshade [12]; Solanum nigrum, 50 g ai/ha): 98%; pest or weed control at 50 g/ha (quack grass [13]; 50 g ai/ha): 30%; Soil treatment herbicidal activity, Fall panicum (fall panicum [14]): 0; Foliar treatment herbicidal activity, Indian jointvetch (indian jointvetch [15]): 100; Soil treatment herbicidal activity, Crabgrass (crabgrass [16]; 50 g ai/ha): 0; Soil treatment herbicidal activity, barnyard grass (barnyard grass [17]; 50 g ai/ha): 0; Soil treatment herbicidal activity, quack grass (quack grass [18]; 50 g ai/ha): 0; Soil treatment herbicidal activity, velvet leaf (velvetleaf [19]; 50 g ai/ha): 100; pest or weed control at 50 g/ha (fall panicum [20]; Panicum dichotomiflorum, 50 g ai/ha): 98%
4 | Cn1nnc(C[S+]([O-])Cc2nc(C(F)F)ccc2C(=O)Nc2nnnn2C)n1 (centres unmarked) [Compound No. 2-111, 6-(difluoromethyl)-N-(1-methyl-1H-tetrazol-1-yl)-2-((((2-methyl-2H-tetrazol-5-yl)methyl)sulfinyl)methyl)nicotinamide] |  |  |  |  |  |  |  |  |  |  |  | 0 | 100 | 0 | 80 | 100 | 98 | 0 | 0 | 98 | Foliar treatment herbicidal activity, Sorghum (sorghum [2]; 50 g ai/ha): 70; Foliar treatment herbicidal activity, barnyard grass (barnyard grass [7]; 50 g ai/ha): 100; Soil treatment herbicidal activity, black nightshade (black nightshade [12]; 50 g ai/ha): 90; Foliar treatment herbicidal activity, quack grass (quack grass [13]; 50 g ai/ha): 0; Soil treatment herbicidal activity, Fall panicum (fall panicum [14]): 0; Foliar treatment herbicidal activity, Indian jointvetch (indian jointvetch [15]): 95; Soil treatment herbicidal activity, Crabgrass (crabgrass [16]; 50 g ai/ha): 0; Soil treatment herbicidal activity, barnyard grass (barnyard grass [17]; 50 g ai/ha): 0; Soil treatment herbicidal activity, quack grass (quack grass [18]; 50 g ai/ha): 0; Soil treatment herbicidal activity, velvet leaf (velvetleaf [19]; 50 g ai/ha): 0; Foliar treatment herbicidal activity, Fall panicum (fall panicum [20]; 50 g ai/ha): 95
